Test results from patent publication US9428753B2, “Use of LXR antagonists for treatment of side effects of elevated glucocorticoid levels” (The Governing Council of the University of Toronto, priority 2013, dated 2016).

How the values were obtained:
Pepck = Pepck gene expression in mouse primary hepatocytes; assay type: cell-based; conditions: for GC-induced Pepck expression: Example 6, GC alone (10 μM; Dex 100 nM)
G6Pc = G6Pc gene expression in mouse primary hepatocytes; conditions: LXRα−/− hepatocytes; for G6Pc expression: 100 nM Dex + 10 μM LXR antagonist; for GC-induced G6Pc expression: Example 6, GC alone (10 μM; Dex 100 nM), overnight
Experimental: For the gene expression studies, the isolated hepatocytes were cultured at least 24 hrs prior to treatment with 10 μM Cortisol, 10 μM Triamcinolone acetonide, 10 μM Prednisone, and 100 nM Dex all±10 μM GSK2033 overnight, and then harvested to isolate mRNA.

GR = target: T1, GR (Homo sapiens, UniProt P04150); test: GAL4-GR / UAS-luc co-transfection reporter assay in HEK293 cells; assay type: cell-based; parameters: co-transfecting UAS-reporter and GAL4-LBD of the nuclear receptors LXRα, LXRβ and GR; GAL4 (fusion partner); expressed in transfected cells; host or cells: HEK293 cells; mouse primary hepatocytes; conditions: Example 7, 100 nM Dex
T1 sequence (P04150 524-758 limits assumed): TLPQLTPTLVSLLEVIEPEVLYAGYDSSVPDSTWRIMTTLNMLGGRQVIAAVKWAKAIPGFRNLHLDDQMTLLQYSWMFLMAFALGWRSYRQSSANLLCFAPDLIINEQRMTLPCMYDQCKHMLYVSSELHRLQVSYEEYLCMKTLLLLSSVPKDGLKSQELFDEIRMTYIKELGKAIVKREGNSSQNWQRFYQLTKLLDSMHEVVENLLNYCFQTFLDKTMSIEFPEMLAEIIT
Experimental: (§1) RLU=relative luciferase units.
as §1
Further experiments were then carried out to determine the inhibitory potencies for the individual LXR isoforms in HEK 293 cells by co-transfecting UAS-reporter and GAL4-LBD of the nuclear receptors LXRα, LXRβ and GR and then treating with 8 different concentrations of GSK2033. To assess suppression of ligand activated receptors, the transfected cells were co-treated with increasing doses of GSK2033, in addition to T09091317 or Dex (dexamethasone) (at EC80 of LXR isoforms and GR, respectively).
A number of experiments were carried out to determine the relative inhibitory potencies of GSK2033, Amgen 54 and DMHCl for the individual LXR isoforms in HEK 293 cells by co-transfecting UAS-reporter and GAL4-LBD of the nuclear receptors LXRα, LXRβ and GR and then treating with 6 different concentrations of GSK2033, Amgen 54 and DMHCl. To assess suppression of ligand activated receptors, the transfected cells were co-treated with increasing doses of GSK2033, Amgen 54 and DMHCl, in addition to T09091317 or Dex (at EC80 of LXR isoforms and GR, respectively).

IL-1β = IL-1β gene expression in LPS activated mouse primary macrophages (RT-QPCR); assay type: cell-based; conditions: LPS activated macrophages; 250 nM T09, 18 hrs
Experimental: (§2) The expression of genes involved in immune response IL-1β, IL-6 and GILZ was measured following an overnight treatment with Dex 100 nM, 250 nM T0901317 (T09), and/or 10 μM GSK2033 in LPS activated WT, LXR α −/− and LXRβ −/− mouse primary macrophages, by RT-QPCR. Data represent the Avg±SD, N=3. *P<0.05 by One way ANOVA, Student Newman Keuls.
(§3) To assess the ability of GSK2033 to affect GR-mediated inflammatory suppression, a number of gene expression studies were conducted on primary macrophages isolated from WT, LXRα−/− and LXRβ−/− mice. Cells were pre-treated with 10 ng/ml lipopolysaccharide (LPS) for 6 hrs (to induce a potent inflammatory response) followed by treatment of 100 nM Dex, 10 μM GSK2033 and/or 250 nM T09 for 18 hrs.

IL-6 = IL-6 gene expression in LPS activated mouse primary macrophages (RT-QPCR); assay type: cell-based; conditions: LPS activated macrophages; 250 nM T09, 18 hrs
Experimental: as §2, §3

Srebp-1c = Srebp-1c gene expression in mouse primary hepatocytes; assay type: cell-based; conditions: 250 nM T09
[1] = test system: tyrosine aminotransferase (TAT); test: TAT gene expression in mouse primary hepatocytes; assay type: cell-based; conditions: 100 nM Dex
Experimental: T09 treatment was used as a positive control for LXR activity. (D) Glucose output over 24 hrs from LXRα−/− and LXRβ−/− mouse primary hepatocytes following Dex 100 nM±10 μM GSK2033 treatment. (E) Glucose output over 8 hrs from WT hepatocytes following Dex 500 nM±10 μM GSK2033 treatments. […] Legend: V=vehicle, G=GSK2033 (LXR antagonist); D=dexamethasone (GR agonist); and T09=T0901317 (LXR agonist).

[2] = test system: mouse primary hepatocytes; test: Glucose production (glucose output) in mouse primary hepatocytes; assay type: cell-based
Experimental: T09 treatment was used as a positive control for LXR activity. (D) Glucose output over 24 hrs from LXRα−/− and LXRβ−/− mouse primary hepatocytes following Dex 100 nM±10 μM GSK2033 treatment. (E) Glucose output over 8 hrs from WT hepatocytes following Dex 500 nM±10 μM GSK2033 treatments. Data represent the Avg±SD, N=3. *P<0.05 by One way ANOVA, Student Newman Keuls. Legend: V=vehicle, G=GSK2033 (LXR antagonist); D=dexamethasone (GR agonist); and T09=T0901317 (LXR agonist).
While not wishing to be limited by theory, subsequent to conducting these initial studies it was realized that 24 hour incubation of hepatocytes in gluconeogenic media may be too long. In the literature, for this type of assay, primary heptocytes are usually incubated up to 12 hours. As such, for subsequent studies of the present application, WT cells were treated with 500 nM Dex for 8 hours to be able to measure detectable levels of glucose in the media.

LXRα−/− mice = test: In vivo 5 day Dex ± GSK2033 co-treatment study; parameters: species or system mouse; conditions: Dex group
Experimental: LXRα−/− mice were treated with Vehicle (Veh), Dex (2.5 mg/kg) b.i.d. or GSK2033 40 mg/kg (once a day) along with Dex b.i.d. for 5 days. (A) Plasma glucose levels were measured by a colorimetric kit (Wako). (B) Spleen weights were measured at the time of sacrifice, and are presented normalized to body weight. (C) Liver Pepck, FOXO1, Pgc 1α, FGF21, GR and LXRβ gene expression measured by QPCR. Data represent the Avg±SEM, N=2-5. *P<0.05 by One way ANOVA, Student Newman Keuls.
Having observed promising results with GSK2033 co-treatment with Dex in-vitro (GSK2033-mediated suppression of GC-induced gluconeogenic side effects without affecting desirable immune suppression); a study was conducted, in which whole body LXRα−/− mice were treated with vehicle (Veh), 2.5 mg/kg bid (subcutaneous injection) Dex or Dex+40 mg/kg GSK2033 (once a day intraperitoneal injection) for 5 days, and sacrificed at lights on.

[3] = Example 8, LXRα−/− hepatocytes, 100 nM Dex + 10 μM LXR antagonist

## CS(=O)(=O)c1ccc(C#CC(O)(c2ccc(N(CC3CC3)S(=O)(=O)c3ccccc3)cc2)C(F)(F)F)cc1 (stereo not drawn) [Amgen 54]
Pepck; [3]
  Pepck expression: 8.4 fold
G6Pc; Example 8
  G6Pc expression: 6.5 fold
GR
  Dex induced GR activity: unaffected

## C[C@]12C=CC(=O)C=C1CC[C@@H]1[C@@H]2C(=O)C[C@@]2(C)[C@H]1CC[C@]2(O)C(=O)CO [Prednisone, prednisone]
Pepck; LXRα−/− hepatocytes, overnight
  GC-induced Pepck expression: 9.3 fold
G6Pc
  GC-induced G6Pc expression: 22.3 fold

## C[C@]12CCC(=O)C=C1CC[C@@H]1[C@@H]2[C@@H](O)C[C@@]2(C)[C@H]1CC[C@]2(O)C(=O)CO [Cortisol, cortisol (hydrocortisone)]
Pepck; LXRα−/− hepatocytes, overnight
  GC-induced Pepck expression: 23.9 fold
G6Pc
  GC-induced G6Pc expression: 10.3 fold

## O=S(=O)(c1ccccc1)N(CC(F)(F)F)c1ccc(C(O)(C(F)(F)F)C(F)(F)F)cc1 [T09]
IL-1β
  IL-1β expression, LXR agonist alone: suppression
IL-6
  IL-6 expression, LXR agonist alone: suppression
Srebp-1c; LXRα−/− hepatocytes
  Srebp-1c expression (induction): 3.7 fold
Srebp-1c; LXRβ−/− hepatocytes
  Srebp-1c expression (induction): 42.0 fold
Srebp-1c; WT hepatocytes
  Srebp-1c expression (induction): 37.7 fold

## CC1(C)O[C@@H]2C[C@H]3[C@@H]4CCC5=CC(=O)C=C[C@]5(C)[C@@]4(F)[C@@H](O)C[C@]3(C)[C@]2(C(=O)CO)O1 [Triamcinolone acetonide, triamcinolone acetonide]
Pepck; LXRα−/− hepatocytes, overnight
  GC-induced Pepck expression: 6.1 fold
G6Pc
  GC-induced G6Pc expression: 27.3 fold

## CC(CCC(=O)N(C)C)[C@H]1CC[C@H]2C3CC=C4CC(Cl)CC[C@]4(C)C3CC[C@]12C (stereo partly drawn) [DMHCl]
Pepck; [3]
  Pepck expression: 1.4 fold
G6Pc; Example 8
  G6Pc expression: 3.9 fold
GR
  Dex induced GR activity: unaffected

## C[C@@H]1C[C@H]2[C@@H]3CCC4=CC(=O)C=C[C@]4(C)[C@@]3(F)[C@@H](O)C[C@]2(C)[C@@]1(O)C(=O)CO [Dex, dexamethasone]
Pepck; Example 3, LXRα−/− hepatocytes, 100 nM Dex alone
  Pepck expression: 15.7 fold
Pepck; Example 3, WT hepatocytes, 100 nM Dex alone, overnight
  Pepck expression: 8.5 fold
Pepck; LXRα−/− hepatocytes, overnight
  GC-induced Pepck expression: 23.2 fold
Pepck; Example 8, LXRα−/− hepatocytes, 100 nM Dex alone
  Dex-induced Pepck expression: 15.8 fold
[1]; LXRα−/− hepatocytes
  TAT expression (induction): 12.7 fold
[1]; LXRβ−/− hepatocytes
  TAT expression (induction): 9.7 fold
[1]; WT hepatocytes
  TAT expression (induction): 20.8 fold
[2]; LXRα−/− hepatocytes, 100 nM Dex alone, 24 hours
  glucose secretion (glucose output): 2.2 fold
[2]; WT hepatocytes, 500 nM Dex alone, 8 hours
  glucose secretion (glucose output): 3 fold
LXRα−/− mice
  liver FOXO 1 gene expression (induction): 3.3 fold
  liver Pepck gene expression (induction): 3.7 fold
G6Pc
  GC-induced G6Pc expression: 11.2 fold
G6Pc; Example 8, 100 nM Dex alone
  Dex-mediated G6Pc expression: 10.3 fold
